{
  "source": "paper PMC6925188",
  "about": "“PBRM1 acts as a p53 lysine-acetylation reader to suppress renal tumor growth” (Nature Communications, 2019)",
  "key": {"endogenous PBRM1 and p53": {"system": "endogenous PBRM1 and p53", "test": "Endogenous p53 immunoprecipitation, HEK293 cells", "type": "cell-based, human", "conditions": "50 μM, 8 h", "from_the_text": "Fig. 1 PBRM1 and p53 display a physical association that is enhanced after DNA damage. a U2OS cells (left) and HEK293T cells (right) were transfected with vector or Flag-PBRM1 and harvested for immunoprecipitation with Flag-M2 beads and elution with 3X Flag peptide. […] Lysates were subjected to immunoprecipitation with Flag-M2 beads. […] Lysates were immunoprecipitated with p53 antibody. The bound PBRM1 and p53 were examined by immunoblots. Source data are provided as a Source Data file."}, "[1]": {"system": "ACHN, Caki-1 and Ren-01 cells", "test": "Immunoblot of p53 targets, kidney cancer cells with PBRM1 shRNA knockdown", "type": "cell-based", "conditions": "50 μM etoposide, Caki-1 and Ren-01", "method": "(§1) Lysates were analyzed by immunoblots. c RCC4 cells with or without p53 KO were transfected with vector or Flag-PBRM1 at the indicated amounts. […] Cells were harvested for RT-qPCR (g) or ChIP followed by qPCR (h). […] Representative data is shown in i. Quantification of cell cycle phase is shown in j. Source data are provided as a Source Data file.\n(§2) After washing with ice-cold PBS, cells were scraped on ice and centrifuged at 10,000 × g for 1 min at 4 °C. For immunoblot analysis, cell pellets were lysed in 1% SDS containing a protease inhibitor cocktail followed by sonication with a FB50 sonic dismembrator (Fisher Scientific) at 20% amplitude for 15 s twice. After centrifuging for 10 min at 14,000 × g, the supernatants were combined with 5X SDS loading buffer (5% mercaptoethanol, 0.05% Bromophenol blue, 30% glycerol, 10% SDS, 250 mM Tris-HCl (pH 6.8)), boiled for 5 min and used in SDS-PAGE. After standard western blot procedures, the blots were developed using the ImageQuant LAS 4000 (GE healthcare Life Sciences) or ChemiDoc MP Imaging System (Bio-rad) with HyGLO™ Chemiluminescent HRP Detection Reagent (E2500, Denville Scientific) or Immobilon™ Western Chemiluminescent HRP Substrate (WBKLS0500, Millipore). […]\n(§3) the indicated times. Lysates were analyzed via immunoblots. b. […]\n(§4) were analyzed by immunoblots. c. […]\n(§5) Lysates were analyzed via immunoblots. e. […]\n(§6) Lysates were analyzed via immunoblots. f, g, h. […]"}, "RCC4 cells": {"system": "RCC4 cells", "conditions": "100 μM etoposide", "method": "as §1, §2, §3, §4, §5, §6"}},
  "data": [
    {"smiles": "COc1cc([C@@H]2c3cc4c(cc3[C@@H](O[C@@H]3O[C@@H]5CO[C@@H](C)O[C@H]5[C@H](O)[C@H]3O)[C@H]3COC(=O)[C@H]23)OCO4)cc(OC)c1O", "note": "[Etoposide]", "values": [
      {"measurement": "endogenous PBRM1 precipitated by p53", "setting": "endogenous PBRM1 and p53", "result": "increased the amount of endogenous PBRM1 precipitated"},
      {"measurement": "p21 induction by p53 with PBRM1 knockdown", "setting": "[1]", "result": "significantly reduced p21 induction"},
      {"measurement": "p21 enhancement by PBRM1 BD4* mutant after p53 activation", "setting": "RCC4 cells", "result": "failed to enhance p21 expression"}
    ]}
  ]
}
